Experimental data: patent publication US8293909B2, “Compounds for the treatment of hepatitis C” (Bristol-Myers Squibb Company, priority 2008, dated 2012)

Columns and labels:
HCV replicon cells = assay: HCV replicon assay (FRET or luciferase readout); format: cell-based; details: Hepatitis C virus
Excerpt: FRET Assay Preparation. To perform the HCV FRET screening assay, 96-well cell culture plates were used. The FRET peptide (Anaspec, Inc.) (Taliani et al., Anal. Biochem. 1996, 240, 60-67) contains a fluorescence donor, EDANS, near one end of the peptide and an acceptor, DABCYL, near the other end. The fluorescence of the peptide is quenched by […] resonance energy transfer (RET) between the donor and the acceptor, but as the NS3 protease cleaves the peptide the products are released from RET quenching and the fluorescence of the donor becomes apparent. The assay reagent was made as follows: 5× cell Luciferase cell culture lysis reagent from Promega (#E153A) diluted to 1× with dH2O, NaCl added to 150 mM final, the FRET peptide diluted to 20 μM final from a 2 mM stock.
To prepare plates, HCV replicon cells, with or without a Renilla luciferase reporter gene, were trypsinized and placed into each well of a 96-well plate with titrated test compounds added in columns 3 through 12; columns 1 and 2 contained a control compound (HCV protease inhibitor), and the bottom row contained cells without compound. The plates were then placed in a CO2 incubator at 37° C.
Assays. Subsequent to addition of the test compounds described above (FRET Assay Preparation), at various times the plate was removed and Alamar blue solution (Trek Diagnostics, #00-100) was added per well as a measure of cellular toxicity. After reading in a Cytoflour 4000 instrument (PE Biosystems), plates were rinsed with PBS and then used for FRET assay by the addition of 30 ul of the FRET peptide assay reagent described above (FRET Assay Preparation) per well. The plate was then placed into the Cytoflour 4000 instrument which had been set to 340 excite/490 emission, automatic mode for 20 cycles and the plate read in a kinetic mode. Typically, the signal to noise using an endpoint analysis after the reads was at least three-fold. Alternatively, after Alamar blue reading, plates were rinsed with PBS, 50 ul of DMEM (high glucose) without phenol red was added and plates were then used for luciferase assay using the Promega Dual-Glo Luciferase Assay System.
Compound analysis was determined by quantification of the relative HCV replicon inhibition and the relative cytotoxicity values. To calculate cytoxicity values, the average Alamar Blue fluorescence signals from the control wells were set as 100% non-toxic. The individual signals in each of the compound test wells were then divided by the average control signal and multiplied by 100% to determine […]. To calculate the HCV replicon inhibition values, an average background value was obtained from the two wells containing the highest amount of HCV protease inhibitor at the end of the assay period. These numbers were similar to those obtained from naïve Huh-7 cells.
The background numbers were then subtracted from the average signal obtained from the control wells and this number was used as 100% activity. The individual signals in each of the compound test wells were then divided by the averaged control values after background subtraction and multiplied by 100% to determine percent activity. EC50 values for a protease inhibitor titration were calculated as the concentration which caused a 50% reduction in FRET or luciferase activity. The two numbers generated for the compound plate, percent cytoxicity and percent activity were used to determine compounds of interest for further analysis.

[1] = molecular target: T1, HCV NS5B RdRp genotype 1b (Hepatitis C virus genotype 1b, UniProt Q9WMX2); assay: HCV NS5B RdRp enzyme assay (standard / modified); format: biochemical; details: HCV NS5B genotype 1b
T1 construct: The protein was expressed with an 18 amino acid C-terminal truncation to enhance the solubility; made in house; host or cells: E. coli BL21(DE3), pET21a vector
Description: HCV NS5B RdRp cloning, expression, and purification. The cDNA encoding the NS5B protein of HCV, genotype 1b, was cloned into the pET21a expression vector. The protein was expressed with an 18 amino acid C-terminal truncation to enhance the solubility. The E. coli competent cell line BL21(DE3) was used for expression of the protein. Cultures were grown at 37° C. for ˜4 hours until the cultures reached an optical density of 2.0 at 600 nm. The cultures were cooled to 20° C. and induced with 1 mM IPTG. Fresh ampicillin was added to a final concentration of 50 μg/ml and the cells were grown overnight at 20° C.
Cell pellets (3 L) were lysed for purification to yield 15-24 mgs of purified NS5B. The lysis buffer consisted of 20 mM Tris-HCl, pH 7.4, 500 mM NaCl, 0.5% triton X-100, 1 mM DTT, 1 mM EDTA, 20% glycerol, 0.5 mg/ml lysozyme, 10 mM MgCl2, 15 ug/ml deoxyribonuclease I, and Complete™ protease inhibitor tablets (Roche). After addition of the lysis buffer, frozen cell pellets were resuspended using a tissue homogenizer. To reduce the viscosity of the sample, aliquots of the lysate were sonicated on ice using a microtip attached to a Branson sonicator. The sonicated lysate was centrifuged at 100,000×g for 1 hr at 4° C. and filtered through a 0.2 μm filter unit (Corning).
The protein was purified using three sequential chromatography steps: Heparin sepharose CL-6B, polyU sepharose 4B, and Hitrap SP sepharose (Pharmacia). The chromatography buffers were identical to the lysis buffer but contained no lysozyme, deoxyribonuclease I, MgCl2 or protease inhibitor and the NaCl concentration of the buffer was adjusted according to the requirements for charging the protein onto the column. Each column was eluted with a NaCl gradient which varied in length from 5-50 column volumes depending on the column type. After the final chromatography step, the resulting purity of the enzyme is >90% based on SDS-PAGE analysis. The enzyme was aliquoted and stored at −80° C.
Standard HCV NS5B RdRp enzyme assay. HCV RdRp genotype 1b assays were run in a final volume of 60 μl in 96 well plates (Costar 3912). The assay buffer is composed of 20 mM Hepes, pH 7.5, 2.5 mM KCl, 2.5 mM MgCl2, 1 mM DTT, 1.6 U RNAse inhibitor (Promega N2515), 0.1 mg/ml BSA (Promega R3961), and 2% glycerol. All compounds were serially diluted (3-fold) in DMSO and diluted further in water such that the final concentration of DMSO in the assay was 2%. HCV RdRp genotype 1b enzyme was used at a final concentration of 28 nM. A polyA template was used at 6 nM, and a biotinylated oligo-dT12 primer was used at 180 nM final concentration. Template was obtained commercially (Amersham 27-4110). Biotinylated primer was prepared by Sigma Genosys. 3H-UTP was used at 0.6 μCi (0.29 μM total UTP). Reactions were initiated by the addition of enzyme, incubated at 30° C. for 60 min, and stopped by adding 25 μl of 50 mM EDTA containing SPA beads (4 μg/μl, Amersham RPNQ 0007). Plates were read on a Packard Top Count NXT after >1 hr incubation at room temperature.
Modified HCV NS5B RdRp enzyme assay. A modified enzyme assay was performed essentially as described for the standard enzyme assay except for the following: The biotinylated oligo dT12 primer was precaptured on streptavidin-coated SPA beads by mixing primer and beads in assay buffer and incubating at room temperature for one hour. Unbound primer was removed after centrifugation. The primer-bound beads were resuspended in 20 mM Hepes buffer, pH 7.5 and used in the assay at final concentrations of 20 nM primer and 0.67 μg/μl beads. Order of addition in the assay: enzyme (14 nM) was added to diluted compound followed by the addition of a mixture of template (0.2 nM), 3H-UTP (0.6 μCi, 0.29 μM), and primer-bound beads, to initiate the reaction; concentrations given are final. Reactions were allowed to proceed for 4 hours at 30° C.
IC50 values for compounds were determined using seven different [I]. […]

T1 sequence (Q9WMX2 2420-2992): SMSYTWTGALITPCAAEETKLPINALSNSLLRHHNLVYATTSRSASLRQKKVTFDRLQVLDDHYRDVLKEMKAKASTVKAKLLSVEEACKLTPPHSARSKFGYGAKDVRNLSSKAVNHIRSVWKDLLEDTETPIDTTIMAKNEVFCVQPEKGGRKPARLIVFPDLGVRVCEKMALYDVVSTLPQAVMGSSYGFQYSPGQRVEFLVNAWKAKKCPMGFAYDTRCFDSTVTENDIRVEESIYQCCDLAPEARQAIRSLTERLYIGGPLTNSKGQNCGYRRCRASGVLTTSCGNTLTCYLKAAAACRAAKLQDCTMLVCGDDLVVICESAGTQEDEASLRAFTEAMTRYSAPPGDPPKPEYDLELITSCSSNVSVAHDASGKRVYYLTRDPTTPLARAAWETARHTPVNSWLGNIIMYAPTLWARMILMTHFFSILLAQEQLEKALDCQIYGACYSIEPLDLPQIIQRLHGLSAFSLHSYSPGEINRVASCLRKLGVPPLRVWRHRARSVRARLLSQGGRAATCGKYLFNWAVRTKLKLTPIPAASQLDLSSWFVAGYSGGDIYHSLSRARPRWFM

SMILES | EC50 (HCV replicon cells; Table 2) [nM] | IC50 ([1]; Table 2) [nM] | EC50 (HCV replicon cells; Table 1) [nM] | IC50 ([1]; Table 1) [nM]
CNC(=O)c1c(-c2ccc(F)cc2)nn2ccc(-c3cc(C(=O)NC4(c5ccccc5)CC4)cc(F)c3C)c(F)c12 [drawing 175] | 4.32 | 30 | – | –
CNC(=O)c1c(-c2ccccc2)nn2cc(-c3ccccc3C)ccc12 | – | – | > 10000 | > 10000
CCN(c1cn2nc(-c3ccc(F)cc3)c(C(=O)NC)c2cc1-c1ccccc1)S(C)(=O)=O | – | – | 250 to 1000 | 2 to 250
CNC(=O)c1c(-c2ccc(F)cc2)nn2cc(NS(C)(=O)=O)c(-c3cccc(C(=O)NC(C)(C)c4ccccc4)c3)cc12 | – | – | 1000 to 10000 | 2 to 250
CNC(=O)c1c(-c2ccc(F)cc2)nn2cc(N)ccc12 | – | – | > 10000 | > 10000
CNC(=O)c1c(-c2ccc(F)cc2)nn2ccc(-c3cc(C(=O)NC4(c5ccccc5)CC4)c(OC)cc3C)c(F)c12 [drawing 134] | – | – | 2 to 250 | 2 to 250
CNC(=O)c1c(-c2ccc(F)cc2)sc2ccc(-c3cccc(C(=O)NC(C)(C)c4ccccc4)c3)cc12 | – | – | 250 to 1000 | 2 to 250
CNC(=O)c1c(-c2ccc(F)cc2)nc2ccc(-c3cc(C(=O)NC(C)(C)c4ccccc4)ccc3Cl)cn12 | – | – | 2 to 250 | 2 to 250
CNC(=O)c1c(-c2ccc(F)cc2)nn2ccc(-c3cc(C(=O)NC4(c5ccccc5)CC4)ccc3C)cc12 [drawing 173] | 2.37 | 4.75 | – | –
CNC(=O)c1c(-c2ccc(F)cc2)nn2ccc(-n3cc(C(=O)NC(C)(C)c4ccccc4)ccc3=O)cc12 | – | – | 250 to 1000 | 2 to 250
CNC(=O)c1c(-c2ccc(F)cc2)n(C)c2ccc(-c3cccc(C(=O)NC(C)(C)c4ccccc4)c3)cc12 | – | – | > 10000 | > 10000
CNC(=O)c1c(-c2ccc(F)cc2)[nH]c2ccc(-c3cccc(C(=O)NC(C)(C)c4ccccc4)c3)cc12 [drawing 80] | – | – | 250 to 1000 | 250 to 1000
CNC(=O)c1c(-c2ccc(F)cc2)nn2cc(-c3ccc(OC)cc3)ccc12 | – | – | > 10000 | > 10000
CNC(=O)c1c(-c2ccccc2)nn2ccc(-c3cccc(C(=O)NC(C)(C)c4ccccc4)c3)cc12 | – | – | 2 to 250 | 2 to 250
CCc1ccccc1-c1ccc2c(C(=O)NC)c(-c3ccccc3)nn2c1 | – | – | > 10000 | > 10000
CNC(=O)c1c(-c2ccc(F)cc2)nn2ccc(-c3cc(C(=O)NC(C)(C)C)ccc3OC)cc12 | – | – | 250 to 1000 | 2 to 250
CNC(=O)c1c(-c2ccc(F)cc2)nc2ccc(-c3cccc(C(=O)O)c3)cn12 | – | – | > 10000 | > 10000
